{"source": "patent US20140371074A1", "about": "“METHOD TO INCREASE PLANT YIELD” (priority 2012, published 2014)", "key": {"[1]": {"system": "soybean cultivars L2711R2X, L3385R2", "assay": "Field 2012: 2,4-D Low Vol 4 + crop oil drizzled onto soil at R1 stage, Laurel, Iowa (Table 2b)", "format": "in vivo", "protocol": "Plants were treated by drizzling via low pressure spraying the 2,4-D solution onto the soil along each side of the rows when plants are at the R1 stage of growth. The date of planting was May 15, 2012 and the date of harvest was Oct. 2, 2012 at plots in Alexander, Iowa (Table 2a) and Laurel, Iowa (Table 2b). Plants were grown from Roundup Ready seed and were sprayed with glyphosate for weed control. Plants were treated with between 1X and 5.5X of 2,4-D solution mixed with crop oil at 15.3 ounces of 2,4-D Low Vol 4 plus 0.32 ounces crop oil per gallon, where 1X is equivalent to approximately 0.45 pounds acid equivalent of 2,4-D. Two repetitions were performed at different plots. […] The moisture percentages were used in correcting each yield to a 13% moisture basis."}, "[2]": {"system": "soybean variety L2438R2", "assay": "Field: seed treatment with 2,4-D mixture 0.01-0.09 ounces per 100 pounds of seed, Laurel, Iowa (Table 7)", "format": "in vivo", "protocol": "Previously untreated soybean seeds were treated with between 0.01 ounces to 0.09 ounces of 2,4-D solution per 100 pounds of seed, in which 0.01 ounces is equivalent to 0.0002968 pounds acid equivalent of 2,4-D. The seed variety was L2438R2 and seeds were planted in Laurel, Iowa with a row width of 50 inches. Four rows were planted and the middle two rows were harvested."}, "[3]": {"details": "5.5X Rate, L2711R2X, 1X~0.45 lb a.e."}, "[4]": {"details": "5.5X Rate, L3385R2, 1X~0.45 lb a.e."}, "[5]": {"details": "Average over 1.0X-3.0X Rates, L2711R2X"}, "[6]": {"details": "Average over 1.0X-3.0X Rates, L3385R2"}, "[7]": {"details": "Average over 1.0X-5.5X Rates, L2711R2X"}, "[8]": {"details": "Average over 1.0X-5.5X Rates, L3385R2"}, "[9]": {"details": "Overall location average, all rates, both cultivars"}, "[10]": {"details": "0.01 ounces per 100 pounds of seed"}, "[11]": {"details": "0.02 ounces per 100 pounds of seed"}, "[12]": {"details": "0.03 ounces per 100 pounds of seed"}, "[13]": {"details": "0.04 ounces per 100 pounds of seed"}, "[14]": {"details": "0.05 ounces per 100 pounds of seed"}, "[15]": {"details": "0.06 ounces per 100 pounds of seed"}, "[16]": {"details": "0.07 ounces per 100 pounds of seed"}, "[17]": {"details": "0.08 ounces per 100 pounds of seed"}, "[18]": {"details": "0.09 ounces per 100 pounds of seed"}}}
{"smiles": "O=C(O)COc1ccc(Cl)cc1Cl", "note": "[2,4-D, 2,4-Dichlorophenoxyacetic acid]", "values": [{"measurement": "Repetition 1 Yield", "setting": "[1]; 5.0X Rate, L3385R2, 1X~0.45 lb a.e.", "value": 74.12, "unit": "Bu/A"}, {"measurement": "Average Yield", "setting": "[1]; 5.0X Rate, L3385R2, 1X~0.45 lb a.e., repetition 1 only", "value": 74.12, "unit": "Bu/A"}, {"measurement": "Repetition 1 Weight", "setting": "[1]; [3]", "value": 5.4, "unit": "Lbs"}, {"measurement": "Repetition 1 Yield", "setting": "[1]; [3]", "value": 60.45, "unit": "Bu/A"}, {"measurement": "Average Yield", "setting": "[1]; 5.5X Rate, L2711R2X, 1X~0.45 lb a.e., repetition 1 only", "value": 60.45, "unit": "Bu/A"}, {"measurement": "Repetition 1 Weight", "setting": "[1]; [4]", "value": 6.3, "unit": "Lbs"}, {"measurement": "Repetition 1 Yield", "setting": "[1]; [4]", "value": 70.37, "unit": "Bu/A"}, {"measurement": "Average Yield", "setting": "[1]; 5.5X Rate, L3385R2, 1X~0.45 lb a.e., repetition 1 only", "value": 70.37, "unit": "Bu/A"}, {"measurement": "Repetition 2 Weight", "setting": "[1]; [5]", "value": 5.7, "unit": "Lbs"}, {"measurement": "Repetition 2 Yield", "setting": "[1]; [5]", "value": 63.90, "unit": "Bu/A"}, {"measurement": "Repetition 2 Weight", "setting": "[1]; [6]", "value": 6.5, "unit": "Lbs"}, {"measurement": "Repetition 2 Yield", "setting": "[1]; [6]", "value": 72.65, "unit": "Bu/A"}, {"measurement": "Average Yield", "setting": "[1]; [7]", "value": 65.19, "unit": "Bu/A"}, {"measurement": "Repetition 1 Weight", "setting": "[1]; [7]", "value": 5.9, "unit": "Lbs"}, {"measurement": "Repetition 1 Yield", "setting": "[1]; [7]", "value": 65.51, "unit": "Bu/A"}, {"measurement": "Average Yield", "setting": "[1]; [8]", "value": 72.39, "unit": "Bu/A"}, {"measurement": "Repetition 1 Weight", "setting": "[1]; [8]", "value": 6.5, "unit": "Lbs"}, {"measurement": "Repetition 1 Yield", "setting": "[1]; [8]", "value": 72.36, "unit": "Bu/A"}, {"measurement": "Average Yield", "setting": "[1]; [9]", "value": 68.79, "unit": "Bu/A"}, {"measurement": "Repetition 1 Weight", "setting": "[1]; [9]", "value": 6.2, "unit": "Lbs"}, {"measurement": "Repetition 1 Yield", "setting": "[1]; [9]", "value": 68.94, "unit": "Bu/A"}, {"measurement": "Repetition 2 Weight", "setting": "[1]; [9]", "value": 6.1, "unit": "Lbs"}, {"measurement": "Repetition 2 Yield", "setting": "[1]; [9]", "value": 68.27, "unit": "Bu/A"}, {"measurement": "Repetition 1 Total weight", "setting": "[2]; [10]", "value": 14.80, "unit": "pounds"}, {"measurement": "Repetition 1 Yield", "setting": "[2]; [10]", "value": 46.49, "unit": "Bu/acre"}, {"measurement": "Repetition 2 Total weight", "setting": "[2]; [10]", "value": 15.60, "unit": "pounds"}, {"measurement": "Repetition 2 Yield", "setting": "[2]; [10]", "value": 48.92, "unit": "Bu/acre"}, {"measurement": "Total yield (total average yield)", "setting": "[2]; [10]", "value": 47.70, "unit": "Bu/acre"}, {"measurement": "Repetition 1 Total weight", "setting": "[2]; [11]", "value": 15.90, "unit": "pounds"}, {"measurement": "Repetition 1 Yield", "setting": "[2]; [11]", "value": 50.21, "unit": "Bu/acre"}, {"measurement": "Repetition 2 Total weight", "setting": "[2]; [11]", "value": 16.10, "unit": "pounds"}, {"measurement": "Repetition 2 Yield", "setting": "[2]; [11]", "value": 50.65, "unit": "Bu/acre"}, {"measurement": "Total yield (total average yield)", "setting": "[2]; [11]", "value": 50.43, "unit": "Bu/acre"}, {"measurement": "Repetition 1 Total weight", "setting": "[2]; [12]", "value": 15.60, "unit": "pounds"}, {"measurement": "Repetition 1 Yield", "setting": "[2]; [12]", "value": 49.26, "unit": "Bu/acre"}, {"measurement": "Repetition 2 Total weight", "setting": "[2]; [12]", "value": 14.90, "unit": "pounds"}, {"measurement": "Repetition 2 Yield", "setting": "[2]; [12]", "value": 47.12, "unit": "Bu/acre"}, {"measurement": "Total yield (total average yield)", "setting": "[2]; [12]", "value": 48.19, "unit": "Bu/acre"}, {"measurement": "Repetition 1 Total weight", "setting": "[2]; [13]", "value": 16.40, "unit": "pounds"}, {"measurement": "Repetition 1 Yield", "setting": "[2]; [13]", "value": 49.46, "unit": "Bu/acre"}, {"measurement": "Repetition 2 Total weight", "setting": "[2]; [13]", "value": 15.90, "unit": "pounds"}, {"measurement": "Repetition 2 Yield", "setting": "[2]; [13]", "value": 47.45, "unit": "Bu/acre"}, {"measurement": "Total yield (total average yield)", "setting": "[2]; [13]", "value": 48.45, "unit": "Bu/acre"}, {"measurement": "Repetition 1 Total weight", "setting": "[2]; [14]", "value": 16.10, "unit": "pounds"}, {"measurement": "Repetition 1 Yield", "setting": "[2]; [14]", "value": 47.48, "unit": "Bu/acre"}, {"measurement": "Repetition 2 Total weight", "setting": "[2]; [14]", "value": 16.00, "unit": "pounds"}, {"measurement": "Repetition 2 Yield", "setting": "[2]; [14]", "value": 49.21, "unit": "Bu/acre"}, {"measurement": "Total yield (total average yield)", "setting": "[2]; [14]", "value": 48.35, "unit": "Bu/acre"}, {"measurement": "Repetition 1 Total weight", "setting": "[2]; [15]", "value": 15.50, "unit": "pounds"}, {"measurement": "Repetition 1 Yield", "setting": "[2]; [15]", "value": 46.85, "unit": "Bu/acre"}, {"measurement": "Repetition 2 Total weight", "setting": "[2]; [15]", "value": 14.90, "unit": "pounds"}, {"measurement": "Repetition 2 Yield", "setting": "[2]; [15]", "value": 45.78, "unit": "Bu/acre"}, {"measurement": "Total yield (total average yield)", "setting": "[2]; [15]", "value": 46.31, "unit": "Bu/acre"}, {"measurement": "Repetition 1 Total weight", "setting": "[2]; [16]", "value": 14.50, "unit": "pounds"}, {"measurement": "Repetition 1 Yield", "setting": "[2]; [16]", "value": 44.99, "unit": "Bu/acre"}, {"measurement": "Repetition 2 Total weight", "setting": "[2]; [16]", "value": 14.90, "unit": "pounds"}, {"measurement": "Repetition 2 Yield", "setting": "[2]; [16]", "value": 46.13, "unit": "Bu/acre"}, {"measurement": "Total yield (total average yield)", "setting": "[2]; [16]", "value": 45.56, "unit": "Bu/acre"}, {"measurement": "Repetition 1 Total weight", "setting": "[2]; [17]", "value": 13.40, "unit": "pounds"}, {"measurement": "Repetition 1 Yield", "setting": "[2]; [17]", "value": 41.93, "unit": "Bu/acre"}, {"measurement": "Repetition 2 Total weight", "setting": "[2]; [17]", "value": 14.30, "unit": "pounds"}, {"measurement": "Repetition 2 Yield", "setting": "[2]; [17]", "value": 44.99, "unit": "Bu/acre"}, {"measurement": "Total yield (total average yield)", "setting": "[2]; [17]", "value": 43.46, "unit": "Bu/acre"}, {"measurement": "Repetition 1 Total weight", "setting": "[2]; [18]", "value": 14.90, "unit": "pounds"}, {"measurement": "Repetition 1 Yield", "setting": "[2]; [18]", "value": 46.40, "unit": "Bu/acre"}, {"measurement": "Repetition 2 Total weight", "setting": "[2]; [18]", "value": 14.00, "unit": "pounds"}, {"measurement": "Repetition 2 Yield", "setting": "[2]; [18]", "value": 43.83, "unit": "Bu/acre"}, {"measurement": "Total yield (total average yield)", "setting": "[2]; [18]", "value": 45.12, "unit": "Bu/acre"}, {"measurement": "Repetition 1 Total weight", "setting": "[2]; Average over 0.01-0.09 ounces", "value": 15.23, "unit": "pounds"}, {"measurement": "Repetition 1 Yield", "setting": "[2]; Average over 0.01-0.09 ounces", "value": 47.01, "unit": "Bu/acre"}, {"measurement": "Repetition 2 Total weight", "setting": "[2]; Average over 0.01-0.09 ounces", "value": 15.18, "unit": "pounds"}, {"measurement": "Repetition 2 Yield", "setting": "[2]; Average over 0.01-0.09 ounces", "value": 47.12, "unit": "Bu/acre"}, {"measurement": "Total yield (total average yield)", "setting": "[2]; Average over 0.01-0.09 ounces", "value": 47.06, "unit": "Bu/acre"}]}
